# Experimental data: patent EP4289427A1, “DIHYDRO[1,8]NAPHTHYRIDIN-7-ONE AND PYRIDO[3,2-B][1,4]OXAZIN-3-ONE FOR USE IN TREATING CANCER, AND METASTASES IN PARTICULAR” (Anagenesis Biotechnologies, priority 2022, dated 2023)
# Tests used:
# [1] = test system: RD cells; test: Cytotoxicity assay (CellTiter-Glo 2.0) on RD cells; assay type: cell-based, Human; conditions: for IC50: Homo sapiens
# Experimental: (§1) Cytotoxicity assays consist in treating cells with compounds and assessing remaining viability after a defined incubation time, depending on the cell line. CellTiter-Glo® 2.0 reagent allows viability measurement by quantification of ATP present, which is an indicator of metabolically active cells.
# (§2) The cancer cell lines were cultivated in their respective growth medium (see tables 6a and 6b). On day 0 of the cytotoxicity assay, the cells were harvested and seeded into a 384-well plate at a defined density in their respective growth medium (see tables 6a and 6b). Compounds to be tested were then added onto the cells and incubated for a defined duration (see tables 6a and 6b). Following incubation, CellTiter-Glo® 2.0 reagent (cat.no. G9241 from Promega) was added into the wells (vol/vol, according to the manufacturer's recommendations), plates were gently shaken and incubated for 10 minutes in the dark at room temperature. Bioluminescence was then measured with a multimode plate reader (Victor Nivo from Perkin Elmer), and cell viability and relative IC50 were determined. Table 6a: Cancer cell characteristics, culture and cytotoxic assay conditions
# [2] = test system: 4T1 cells; test: Cytotoxicity assay (CellTiter-Glo 2.0) on 4T1 cells; assay type: cell-based, Mouse; conditions: incubation 2 days; for IC50: Mus musculus, 48 h
# Experimental: as §1, §2
# [3] = test system: MDA-MB-231 cells; test: Cytotoxicity assay (CellTiter-Glo 2.0) on MDA-MB-231 cells; assay type: cell-based, Human; conditions: incubation 3 days; for IC50: Homo sapiens, 72 h
# Experimental: as §1, §2
# [4] = test system: EoL-1 cells; test: Cytotoxicity assay (CellTiter-Glo 2.0) on EoL-1 cells; assay type: cell-based, Human; conditions: incubation 1 day; for IC50: Homo sapiens, EOL1, 24 h
# Experimental: as §1, §2
# [5] = test system: HUVECs; test: Tube formation assay (anti-angiogenic activity); assay type: cell-based, human; conditions: incubation 16 to 18 hours; for IC50: Homo sapiens, HUVEC
# Description: Angiogenesis is a phenomenon that includes different processes, such as endothelial cell proliferation, migration and differentiation that lead to the formation of new blood vessels. Tube formation assay is a standard in vitro test to assess angiogenesis: briefly, human Umbilical Vein Endothelial cells (hereafter "HUVECs") cultivated on a gelled basement matrix spontaneously proliferate, migrate and differentiate to form tube-like structures, that appear elongated and that connect to each other to form a network.
# HUVECs were cultivated in Endothelial Cell Growth Medium (cat.no. C-22010 from Promocell) supplemented with 1% PenStrep (hereafter "HUVEC medium"). On day 0, HUVECs were harvested and transferred into a 384-well plate precoated with 10 µl/well of Cultrex UltiMatrix Reduced Growth factor basement membrane (cat.no. BME001-10 from BioTechne), according to the manufacturer's instructions, at a density of 5000 cells/well in HUVEC medium. Compounds to be tested were then added onto the cells and incubated for 16 to 18 hours at 37°C. After this incubation period, the cells were stained with calcein-AM (cat.no. 10462052 from Fisher Scientific) and pictures were acquired using a confocal fluorescent microscope (IXM from Molecular Devices). Tube formation was measured with MetaXpress® Software.
SMILES,Cytotoxicity ([1]; 2 day-treatment),Cytotoxicity ([1]; 4 day-treatment),"IC50 ([1]; 48 h, 2 day-treatment) [nM]","IC50 ([1]; 96 h, 4 day-treatment) [nM]",IC50 [2] [nM],Cytotoxicity [2],IC50 [3] [nM],Cytotoxicity [3],IC50 [4] [nM],Cytotoxicity [4],IC50 [5] [nM],Angiogenesis inhibition [5]
"CSc1cc(Oc2ccnc3c2CCC(=O)N3)ccc1NC(=O)Nc1cc(C(C)(C)C)on1 [Compound 026, 1-(5-tert-butylisoxazol-3-yl)-3-[2-methylsulfanyl-4-[(7-oxo-6,8-dihydro-5H-1,8-naphthyridin-4-yl)oxy]phenyl]urea]",++ (50% ≤ cytotoxicity < 85%),++ (50% ≤ cytotoxicity < 85%),1000 to 5000,1000 to 5000,1000 to 5000,+++ (cytotoxicity ≥ 85%),1000 to 5000,++ (50% ≤ cytotoxicity < 85%),< 1,+++ (cytotoxicity ≥ 85%),100 to 500,+++ (angiogenesis inhibition ≥ 80%)
"CN(C)Cc1cccc(-n2nc(C(C)(C)C)cc2NC(=O)Nc2ccc(Oc3ccnc4c3CCC(=O)N4)cc2C(F)(F)F)c1 [Compound 028, 1-[5-tert-butyl-2-[3-[(dimethylamino)methyl]phenyl]pyrazol-3-yl]-3-[4-[(7-oxo-6,8-dihydro-5H-1,8-naphthyridin-4-yl)oxy]-2-(trifluoromethyl)phenyl]urea]",++ (50% ≤ cytotoxicity < 85%),+++ (cytotoxicity ≥ 85%),1000 to 5000,1000 to 5000,< 1000,+++ (cytotoxicity ≥ 85%),1000 to 5000,+++ (cytotoxicity ≥ 85%),1 to 10,++ (50% ≤ cytotoxicity < 85%),< 100,+++ (angiogenesis inhibition ≥ 80%)
"CC(C)(C)c1cc(NC(=O)Nc2ccc(Oc3ccnc4c3CCC(=O)N4)cc2C(F)(F)F)n(-c2cccnc2)n1 [Compound 030, 1-[5-tert-butyl-2-(3-pyridyl)pyrazol-3-yl]-3-[4-[(7-oxo-6,8-dihydro-5H-1,8-naphthyridin-4-yl)oxy]-2-(trifluoromethyl)phenyl]urea]",++ (50% ≤ cytotoxicity < 85%),++ (50% ≤ cytotoxicity < 85%),5000 to 10000,5000 to 10000,1000 to 5000,+++ (cytotoxicity ≥ 85%),1000 to 5000,++ (50% ≤ cytotoxicity < 85%),10 to 100,++ (50% ≤ cytotoxicity < 85%),< 100,+++ (angiogenesis inhibition ≥ 80%)
"CSc1cc(Oc2ccnc3c2OCC(=O)N3)ccc1NC(=O)Nc1cc(C(C)(C)C)nn1-c1ccc(F)cc1F [Compound 031, 1-[5-tert-butyl-2-(2,4-difluorophenyl)pyrazol-3-yl]-3-[2-methylsulfanyl-4-[(3-oxo-4H-pyrido[3,2-b][1,4]oxazin-8-yl)oxy]phenyl]urea]",++ (50% ≤ cytotoxicity < 85%),++ (50% ≤ cytotoxicity < 85%),1000 to 5000,1000 to 5000,1000 to 5000,+++ (cytotoxicity ≥ 85%),1000 to 5000,++ (50% ≤ cytotoxicity < 85%),1 to 10,+++ (cytotoxicity ≥ 85%),100 to 500,+++ (angiogenesis inhibition ≥ 80%)
"CSc1cc(Oc2ccnc3c2OCC(=O)N3)ccc1NC(=O)Nc1cc(C(C)(C)C)nn1-c1ccc(CN(C)C)cc1 [Compound 033, 1-[5-tert-butyl-2-[4-[(dimethylamino)methyl]phenyl]pyrazol-3-yl]-3-[2-methylsulfanyl-4-[(3-oxo-4H-pyrido[3,2-b][1,4]oxazin-8-yl)oxy]phenyl]urea]",+++ (cytotoxicity ≥ 85%),+++ (cytotoxicity ≥ 85%),1000 to 5000,1000 to 5000,< 1000,+++ (cytotoxicity ≥ 85%),1000 to 5000,+++ (cytotoxicity ≥ 85%),1 to 10,+++ (cytotoxicity ≥ 85%),< 100,+++ (angiogenesis inhibition ≥ 80%)
"CN(C)Cc1ccc(-n2nc(C(C)(C)C)cc2NC(=O)Nc2ccc(Oc3ccnc4c3CCC(=O)N4)cc2C(F)(F)F)cc1 [Compound 034, 1-[5-tert-butyl-2-[4-[(dimethylamino)methyl]phenyl]pyrazol-3-yl]-3-[4-[(7-oxo-6,8-dihydro-5H-1,8-naphthyridin-4-yl)oxy]-2-(trifluoromethyl)phenyl]urea]",+++ (cytotoxicity ≥ 85%),+++ (cytotoxicity ≥ 85%),1000 to 5000,1000 to 5000,< 1000,+++ (cytotoxicity ≥ 85%),1000 to 5000,+++ (cytotoxicity ≥ 85%),1 to 10,++ (50% ≤ cytotoxicity < 85%),< 100,+++ (angiogenesis inhibition ≥ 80%)
"CSc1cc(Oc2ccnc3c2OCC(=O)N3)ccc1NC(=O)Nc1cc(C(C)(C)C)nn1-c1cccc(CN2CCOCC2)c1 [Compound 035, 1-[5-tert-butyl-2-[3-(morpholinomethyl)phenyl]pyrazol-3-yl]-3-[2-methylsulfanyl-4-[(3-oxo-4H-pyrido[3,2-b][1,4]oxazin-8-yl)oxy]phenyl]urea]",++ (50% ≤ cytotoxicity < 85%),++ (50% ≤ cytotoxicity < 85%),1000 to 5000,5000 to 10000,1000 to 5000,+++ (cytotoxicity ≥ 85%),1000 to 5000,+++ (cytotoxicity ≥ 85%),1 to 10,+++ (cytotoxicity ≥ 85%),100 to 500,+++ (angiogenesis inhibition ≥ 80%)
"CC(C)(C)c1cc(NC(=O)Nc2ccc(Oc3ccnc4c3OCC(=O)N4)cc2C(F)(F)F)on1 [Compound 037, 1-(3-tert-butylisoxazol-5-yl)-3-[4-[(3-oxo-4H-pyrido[3,2-b][1,4]oxazin-8-yl)oxy]-2-(trifluoromethyl)phenyl]urea]",++ (50% ≤ cytotoxicity < 85%),++ (50% ≤ cytotoxicity < 85%),5000 to 10000,1000 to 5000,1000 to 5000,+++ (cytotoxicity ≥ 85%),1000 to 5000,++ (50% ≤ cytotoxicity < 85%),1 to 10,+++ (cytotoxicity ≥ 85%),100 to 500,++ (80% > angiogenesis inhibition ≥ 50%)
"CSc1cc(Oc2ccnc3c2OCC(=O)N3)ccc1NC(=O)Nc1cc(C(C)(C)C)nn1-c1ccc(CN2CCOCC2)cc1 [Compound 038, 1-[5-tert-butyl-2-[4-(morpholinomethyl)phenyl]pyrazol-3-yl]-3-[2-methylsulfanyl-4-[(3-oxo-4H-pyrido[3,2-b][1,4]oxazin-8-yl)oxy]phenyl]urea]",++ (50% ≤ cytotoxicity < 85%),++ (50% ≤ cytotoxicity < 85%),1000 to 5000,1000 to 5000,1000 to 5000,+++ (cytotoxicity ≥ 85%),1000 to 5000,++ (50% ≤ cytotoxicity < 85%),1 to 10,++ (50% ≤ cytotoxicity < 85%),100 to 500,+++ (angiogenesis inhibition ≥ 80%)
"CC(C)(C)c1cc(NC(=O)Nc2ccc(Oc3ccnc4c3OCC(=O)N4)cc2C(F)(F)F)n(-c2cncc(F)c2)n1 [Compound 039, 1-[5-tert-butyl-2-(5-fluoro-3-pyridyl)pyrazol-3-yl]-3-[4-[(3-oxo-4H-pyrido[3,2-b][1,4]oxazin-8-yl)oxy]-2-(trifluoromethyl)phenyl]urea]",++ (50% ≤ cytotoxicity < 85%),+ (20 % ≤ cytotoxicity < 50%),1000 to 5000,5000 to 10000,< 1000,+++ (cytotoxicity ≥ 85%),1000 to 5000,++ (50% ≤ cytotoxicity < 85%),10 to 100,++ (50% ≤ cytotoxicity < 85%),< 100,+++ (angiogenesis inhibition ≥ 80%)
